How the values were obtained:
[1] = tested on: Rhodococcus ruber SC1; assay: Growth of Rhodococcus ruber SC1 on cyclic ketones as sole carbon and energy source; format: cell-based; details: cyclic ketone as sole carbon and energy source
Protocol: Synthetic S12 medium was used to establish enrichment. S12 medium contains the following: 10 mM ammonium sulfate, 50 mM potassium phosphate buffer (pH 7.0), 2 mM MgCl2, 0.7 mM CaCl2, 50 μM MnCl2, 1 μM FeCl3, 1 μM […], 1.72 μM CuSO4, 2.53 μM CoCl2, 2.42 μM […], and 0.0001% FeSO4. The carbon sources were added directly to the S12 medium and the bacteria were grown in sealed culture flasks.
S12 agar was used to test isolates that utilize compounds as the sole source of carbon and energy. S12 agar was prepared by adding 1.5% Noble agar (DIFCO) to S12 medium. Bacteria growing on S12 agar were supplied with volatile compounds such as cyclododecanone by sprinkling solids of the volatile compound on the interior of the petri dish lid or 5 μl of other volatile liquid as vapor. The petri dish was sealed with parafilm and incubated with the lid on the bottom.
Rhodococcus ruber SC1 isolated from cyclododecanone (C12 cyclic ketone) enrichment culture was also tested for growth on cyclic ketones of different carbon numbers as sole carbon and energy source (Table 3). It grows well on cyclopentadecanone (C15 cyclic ketone), cyclotridecanone (C13 cyclic ketone), cyclododecanone (C12 cyclic ketone) and cycloundecanone (C11 cyclic ketone).

[2] = tested on: monooxygenase and esterase on the S8C; assay: Production of different chain length hydroxy acids from cyclic ketones by recombinant E. coli cosmid clone S8C (GC/MS); format: cell-based, Escherichia coli; details: cyclic ketone substrate at 250 mg/L
Protocol: Transformed XL1-Blue MR cells were grown in M9 medium with 0.4% glucose as sole carbon source. Substrate for conversion was added at early log phase (OD=0.2) and cells were allowed to grow at 30° C. for 20 additional hours. Cells were then frozen and thawed once, centrifiged, and supernatant was filtered through 0.2 μm filters. Filtrate was prepared for GC/MS analysis as described below.
Filtrate was first acidified to pH 2 using concentrated HCl. The acidified sample was extracted twice with methylene chloride or ethyl acetate. The extracts were combined and dried by adding anhydrous magnesium sulfate. Magnesium sulfate was then removed by filteration using Whatman 3MM filter paper and the remaining solvent in the filtrate was evaporated under a gentle stream of nitrogen. […]
Example 8 explores whether the cyclic substrates could be expanded to cyclic ketones of different chain length and whether corresponding hydroxy acids could be produced. […] Large amount of corresponding hydroxy acids were detected from S8C grown in the presence of C11, C12 and C13 cyclic ketones. Medium level of 15-hydroxy acid was detected from C15 cyclic ketone grown cells. Small amount of hydroxy acids was detected from cells grown on C6 and C10 cyclic ketones. […]

## O=C1CCCCC1 [C6, cyclohexanone]
[1]
  Growth of Rhodococcus ruber SC1: does not grow
[2]
  Corresponding Hydroxy Acid Produced by E. coli Cosmids: Small amount

## O=C1CCCCCC1 [C7, cycloheptanone]
[1]
  Growth of Rhodococcus ruber SC1: does not grow

## O=C1CCCCCCC1 [C8, cyclooctanone]
[1]
  Growth of Rhodococcus ruber SC1: does not grow

## O=C1CCCCCCCCC1 [C10, cyclodecanone]
[1]
  Growth of Rhodococcus ruber SC1: grows moderately well
[2]
  Corresponding Hydroxy Acid Produced by E. coli Cosmids: Small amount

## O=C1CCCCCCCCCC1 [C11, cycloundecanone]
[1]
  Growth of Rhodococcus ruber SC1: grows well

## O=C1CCCCCCCCCCC1 [C12, cyclododecanone]
[1]
  Growth of Rhodococcus ruber SC1: grows well

## O=C1CCCCCCCCCCCC1 [C13, cyclotridecanone]
[1]
  Growth of Rhodococcus ruber SC1: grows well

## O=C1CCCCCCCCCCCCCC1 [C15, cyclopentadecanone]
[1]
  Growth of Rhodococcus ruber SC1: grows well
